1 molecule from patent US10974081B2, “Treatment and prevention of sleep disorders” (Purdue Pharma L.P., priority 2016, dated 2021) can be followed below.

Values after ≈ are worked out from the molar mass of the structure shown.

One series relates to rat liver microsomes. Kind of series: In vitro metabolic stability, rat liver microsomes. The series is classed as in vitro ADME. The note with it: 2 μM, % remaining after 30 minutes at 37° C. How it is done: (§1) The comparative in vitro metabolic stabilities of Compounds (1F), […], and W-212393 were determined upon exposure to human liver microsomes or rat liver microsomes according to a procedure disclosed in, e.g., Example 14 of U.S. Pat. No. 9,290,488, which is hereby incorporated by reference in its entirety. Liver microsomes from Crj;CD rats or humans were incubated with 2 μM of each tested compound; thereafter, the supernatant was analyzed by HPLC-MS for the concentration of the tested compound present. Human liver microsomes, pooled, 20 mg/mL, were obtained from […] #H0610). […] Alternatively and if desired, rat liver microsomes can be obtained commercially from, e.g., XenoTech (Sprague-Dawley rat liver microsomes, pooled, 20 mg/mL, cat #R1000). β-NADPH (β-nicotinamide adenine dinucleotide 2'-phosphate reduced tetrasodium salt hydrate) was obtained from Oriental Yeast Co., Ltd. (Tokyo, Japan). Each tested compound, present at an initial concentration of 2 μM, was incubated at 37° C. in the presence of 0.5 mg/mL of either human microsomes or rat microsomes in suspension in 50 mM Tris-HCl buffer (7.4 pH), 150 mM KCl, 10 mM MgCl2, and 1 mM β-NADPH. Incubation was initiated upon the addition of a 100-fold concentrated solution of the tested compound to one of the microsome preparations. Incubation was terminated by addition of a two-fold volume of a 1/1 mixture of acetonitrile/methanol after either 0 minutes or 30 minutes of incubation at 37° C. Thereafter, proteins and other macromolecules from the microsome preparation were removed by centrifugation. All incubations were conducted in duplicate. […] The HPLC system consisted of a Waters 2795 separations module (Waters Corp., Milford, Mass.) equipped with an inline degasser, temperature controlled auto-sampler, and column oven. The analytical column was a Waters […], 2.1 mm×20 mm column. The mass analyzer was a Waters ZQ, single quadrupole mass spectrometer equipped with an electrospray ionization source operating in the positive ionization mode and utilizing a stainless steel spray capillary. […]
In general terms: Liver microsomes are vesicles of endoplasmic reticulum, rich in cytochrome P450 enzymes.

The nature of series [1]: Aqueous solubility at pH about 6.8. The series is classed as physicochemical. The note with it: 25 °C, pH 6.8, aqueous buffer, kinetic from dmso stock, single value, procedure not stated; read-out: Solubility at pH 6.8.
For a further series, the system named is human liver microsomes. Nature of the series: In vitro metabolic stability, human liver microsomes. The following applies: 2 μM, % remaining after 30 minutes at 37° C. In kind it is in vitro ADME. As for the experimental part:
as §1

Usually solubility stands for the dissolved amount per volume that the medium holds.

Regarding `CNC(=O)Cn1c(=O)n(C2CCN([C@@H]3Cc4cccc5cccc3c45)CC2)c2ccccc21` [Compound W-212393], the “Rat Metabolic Stability (%)” value in the series on rat liver microsomes is 58.4%. Moreover, in series [1], the solubility at 16 h was determined as 42 µM (≈ 18.5 µg/mL). For the same molecule, the “Human Metabolic Stability (%)” value with human liver microsomes was found to be 27.3%.
